Results reported in ChEMBL document CHEMBL1287778, “Antifungal agents. Part 5: synthesis and antifungal activities of aminoguanidine derivatives of N-arylsulfonyl-3-acylindoles” (2010).

Assays:
Assay type in all cases: functional
[1] = system: Bipolaris sorokiniana; experiment: Antifungal activity against Bipolaris sorokiniana assessed as percent inhibition at 100 ug/ml
[2] = system: Alternaria alternata; experiment: Antifungal activity against Alternaria alternata assessed as percent inhibition at 100 ug/ml
[3] = Antifungal activity against Fusarium oxysporum f. sp. cucumerinum assessed as percent inhibition at 100 ug/ml
[4] = system: Fusarium graminearum; experiment: Antifungal activity against Fusarium graminearum assessed as percent inhibition at 100 ug/ml
[5] = system: Alternaria brassicae; experiment: Antifungal activity against Alternaria brassicae assessed as percent inhibition at 100 ug/ml
[6] = system: Pyricularia oryzae; experiment: Antifungal activity against Pyricularia oryzae assessed as percent inhibition at 100 ug/ml
[7] = system: Fusarium oxysporum f. sp. vasinfectum; experiment: Antifungal activity against Fusarium oxysporum f. sp. vasinfectum assessed as percent inhibition at 100 ug/ml

CC/C(=N\NC(=N)N)c1cn(S(=O)(=O)c2ccccc2)c2ccccc12
inhibition at 100 µg/mL [1]: 69.2% | inhibition at 100 µg/mL [2]: 73.8% | inhibition [3]: 48.4% | inhibition at 100 µg/mL [4]: 50.5% | inhibition at 100 µg/mL [5]: 43.3% | inhibition at 100 µg/mL [6]: 75.6% | inhibition at 100 µg/mL [7]: 56.7%

Cc1cccc2c1c(/C=N/NC(=N)N)cn2S(=O)(=O)c1ccccc1
inhibition at 100 µg/mL [1]: 36.9% | inhibition at 100 µg/mL [2]: 42.5% | inhibition [3]: 26.3% | inhibition at 100 µg/mL [4]: 26% | inhibition at 100 µg/mL [5]: 21.1% | inhibition at 100 µg/mL [6]: 46.8% | inhibition at 100 µg/mL [7]: 19.9%

Cc1ccc(S(=O)(=O)n2cc(/C=N/NC(=N)N)c3c(C)cccc32)cc1
inhibition at 100 µg/mL [1]: 72.6% | inhibition at 100 µg/mL [2]: 70.8% | inhibition [3]: 44.7% | inhibition at 100 µg/mL [4]: 48.2% | inhibition at 100 µg/mL [5]: 49.1% | inhibition at 100 µg/mL [6]: 72.2% | inhibition at 100 µg/mL [7]: 41.6%

Cc1ccc(S(=O)(=O)n2cc(/C=N/NC(=N)N)c3ccc(C)cc32)cc1
inhibition at 100 µg/mL [1]: 46.2% | inhibition at 100 µg/mL [2]: 59.2% | inhibition [3]: 43.5% | inhibition at 100 µg/mL [4]: 39% | inhibition at 100 µg/mL [5]: 30.9% | inhibition at 100 µg/mL [6]: 58.2% | inhibition at 100 µg/mL [7]: 40.5%

C/C(=N\NC(=N)N)c1cn(S(=O)(=O)c2ccc(C)cc2)c2ccccc12
inhibition at 100 µg/mL [1]: 58.4% | inhibition at 100 µg/mL [2]: 62.9% | inhibition [3]: 37.2% | inhibition at 100 µg/mL [4]: 48.8% | inhibition at 100 µg/mL [5]: 37.9% | inhibition at 100 µg/mL [6]: 52.3% | inhibition at 100 µg/mL [7]: 58.3%

N#Cc1ccc2c(c1)c(/C=N/NC(=N)N)cn2S(=O)(=O)c1ccccc1
inhibition at 100 µg/mL [1]: 13.8% | inhibition at 100 µg/mL [2]: 23.4% | inhibition [3]: 11.1% | inhibition at 100 µg/mL [4]: 26% | inhibition at 100 µg/mL [5]: 9.09% | inhibition at 100 µg/mL [6]: 20.1% | inhibition at 100 µg/mL [7]: 14.1%

N=C(N)N/N=C/c1cn(S(=O)(=O)c2cccc([N+](=O)[O-])c2)c2ccccc12
inhibition at 100 µg/mL [1]: 36.9% | inhibition at 100 µg/mL [2]: 51.1% | inhibition [3]: 28% | inhibition at 100 µg/mL [4]: 31.4% | inhibition at 100 µg/mL [5]: 30% | inhibition at 100 µg/mL [6]: 42.3% | inhibition at 100 µg/mL [7]: 28.6%

C/C(=N\NC(=N)N)c1cn(S(=O)(=O)c2ccc(C)cc2)c2cccc(C)c12
inhibition at 100 µg/mL [1]: 80.6% | inhibition at 100 µg/mL [2]: 83% | inhibition [3]: 57% | inhibition at 100 µg/mL [4]: 46.6% | inhibition at 100 µg/mL [5]: 56.9% | inhibition at 100 µg/mL [6]: 84.8% | inhibition at 100 µg/mL [7]: 55.6%

CCCCC/C(=N\NC(=N)N)c1cn(S(=O)(=O)c2ccccc2)c2ccccc12
inhibition at 100 µg/mL [1]: 50.2% | inhibition at 100 µg/mL [2]: 60.6% | inhibition [3]: 38.6% | inhibition at 100 µg/mL [4]: 39.4% | inhibition at 100 µg/mL [5]: 30% | inhibition at 100 µg/mL [6]: 52% | inhibition at 100 µg/mL [7]: 30.7%
